Experimental data: US20220056043A1, “NITROGEN-CONTAINING FUSED CYCLIC COMPOUND, PREPARATION METHOD THEREFOR AND USE THEREOF” (SICHUAN KELUN-BIOTECH BIOPHARMACEUTICAL CO., LTD., priority 2019, published 2022)

Experiments:
hNLRP3 inflammasome = target: T1, hNLRP3 inflammasome (Homo sapiens, UniProt Q96P20); test: Agonistic effect on the expression of IL-1β in THP-1 cells after PMA-induced differentiation (HTRF); type: cell-based; details: IL-1β level, PMA-differentiated THP-1 cells, 6 hours
T1 construct: endogenous in cells; host or cells: THP-1 cells, PMA-differentiated
T1 sequence (Q96P20 whole entry): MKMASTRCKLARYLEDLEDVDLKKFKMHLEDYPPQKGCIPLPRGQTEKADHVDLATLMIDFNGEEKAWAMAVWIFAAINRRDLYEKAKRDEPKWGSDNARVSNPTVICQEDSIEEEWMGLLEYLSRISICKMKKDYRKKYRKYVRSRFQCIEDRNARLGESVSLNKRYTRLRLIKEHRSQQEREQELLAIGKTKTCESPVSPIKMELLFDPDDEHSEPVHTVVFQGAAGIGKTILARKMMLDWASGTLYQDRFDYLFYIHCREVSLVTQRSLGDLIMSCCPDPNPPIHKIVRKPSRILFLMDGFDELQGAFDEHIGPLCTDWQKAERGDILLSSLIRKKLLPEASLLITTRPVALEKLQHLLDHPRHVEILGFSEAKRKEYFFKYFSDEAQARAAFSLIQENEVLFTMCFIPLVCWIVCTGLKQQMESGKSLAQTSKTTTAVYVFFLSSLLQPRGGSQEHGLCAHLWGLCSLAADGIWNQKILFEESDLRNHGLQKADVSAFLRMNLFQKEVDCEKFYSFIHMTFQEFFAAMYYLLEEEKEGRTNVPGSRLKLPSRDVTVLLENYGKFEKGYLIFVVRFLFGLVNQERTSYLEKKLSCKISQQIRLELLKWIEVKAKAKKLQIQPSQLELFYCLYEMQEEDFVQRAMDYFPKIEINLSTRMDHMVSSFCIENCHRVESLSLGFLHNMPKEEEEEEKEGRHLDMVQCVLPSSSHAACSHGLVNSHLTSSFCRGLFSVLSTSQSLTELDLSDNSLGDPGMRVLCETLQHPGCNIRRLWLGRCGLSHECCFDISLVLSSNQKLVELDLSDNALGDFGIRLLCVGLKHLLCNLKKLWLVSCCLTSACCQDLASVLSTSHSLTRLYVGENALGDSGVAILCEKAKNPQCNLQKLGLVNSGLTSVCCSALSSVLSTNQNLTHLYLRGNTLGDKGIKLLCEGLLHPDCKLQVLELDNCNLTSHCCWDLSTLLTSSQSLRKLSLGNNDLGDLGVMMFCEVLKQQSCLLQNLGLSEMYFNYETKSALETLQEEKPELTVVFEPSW
How it was run: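 THP-1 cells differentiated with 1 μM PMA for 24 h, then replated at 1×10^5 cells/well in RPMI 1640 with 2% FBS. Compounds added for 6 h at 37 °C, 5% CO2. Supernatant IL-1β measured by HTRF; EC50 from four-parameter variable-slope fit.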

hTLR7 = target: T2, hTLR7 (Homo sapiens, UniProt Q9NYK1); test: Agonistic effect on hTLR7, HEK-hTLR7-NF-κB-Luciferase reporter cells; type: cell-based; details: 16 hours
T2 construct: host or cells: HEK-hTLR7-NF-κB-Luciferase cells
T2 sequence (Q9NYK1 27-1049): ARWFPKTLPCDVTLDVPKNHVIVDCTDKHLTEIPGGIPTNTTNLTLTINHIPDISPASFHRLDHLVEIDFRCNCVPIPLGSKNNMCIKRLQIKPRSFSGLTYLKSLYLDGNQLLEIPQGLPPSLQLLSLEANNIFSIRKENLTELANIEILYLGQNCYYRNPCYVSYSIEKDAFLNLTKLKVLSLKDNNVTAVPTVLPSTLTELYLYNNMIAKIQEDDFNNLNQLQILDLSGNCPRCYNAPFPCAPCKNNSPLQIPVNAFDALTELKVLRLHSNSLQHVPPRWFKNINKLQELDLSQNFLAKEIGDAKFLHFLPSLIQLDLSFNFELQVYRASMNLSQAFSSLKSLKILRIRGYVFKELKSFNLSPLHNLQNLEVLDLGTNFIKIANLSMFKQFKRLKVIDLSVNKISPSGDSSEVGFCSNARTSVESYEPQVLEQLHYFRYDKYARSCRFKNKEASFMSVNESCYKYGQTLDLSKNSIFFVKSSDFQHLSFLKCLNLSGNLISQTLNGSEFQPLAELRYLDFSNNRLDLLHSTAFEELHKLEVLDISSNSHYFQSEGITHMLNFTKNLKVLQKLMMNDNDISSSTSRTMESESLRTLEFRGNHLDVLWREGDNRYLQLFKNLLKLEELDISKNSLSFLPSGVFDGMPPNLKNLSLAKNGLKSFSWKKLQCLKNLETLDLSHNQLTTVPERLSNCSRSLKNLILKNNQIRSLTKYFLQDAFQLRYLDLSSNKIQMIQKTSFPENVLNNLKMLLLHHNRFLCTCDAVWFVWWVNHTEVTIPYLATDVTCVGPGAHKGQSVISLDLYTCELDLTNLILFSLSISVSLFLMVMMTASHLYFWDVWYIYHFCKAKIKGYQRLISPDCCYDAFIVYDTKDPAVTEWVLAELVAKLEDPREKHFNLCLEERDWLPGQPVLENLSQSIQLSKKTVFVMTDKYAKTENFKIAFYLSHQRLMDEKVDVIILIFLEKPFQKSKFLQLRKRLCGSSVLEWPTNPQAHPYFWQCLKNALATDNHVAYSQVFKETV
Excerpt: Experimental Example 3: Agonistic Effect of the Compound of the Invention on hTLR7
In this test, the luciferase in HEK-hTLR7-NF-κB-reporter cells was detected to test the activating effect of the compound of the invention on TLR7 signaling pathway, so as to evaluate the specificity of the agonistic effect of the compound on NLRP3 pathway.
Reagents: DMEM (High glucose); FBS (fetal bovine serum) (Gibco); Bright-Glo™ Luciferase detection kit (Promega)
Cells: HEK-hTLR7-NF-κB-Luciferase gene cells (human TLR7 NF-κB-luciferase reporter gene cells) (Nanjing Cobioer)
1) The HEK-hTLR7-NF-κB-Luciferase cells in a logarithmic growth phase were trypsinized and resuspended in the medium to a concentration of 2×10^6 cells/mL. 50 μL/well of the cell resuspension was added to a 96-well plate such that the number of cells in each well was […]. An appropriate amount of 10 mM DMSO solution of the compound to be tested was taken and diluted to a concentration of 2× test concentration with the medium. 50 μL/well was added to the cells in the 96-well plate, and the 96-well plate was incubated in an incubator at 37° C. and 5% CO2 for 16 hours. The medium was DMEM (High glucose) containing 10% FBS.
2) After the cell incubation, 100 μL/well of Bright-Glo™ Luciferase detection reagent was added, and the mixture was incubated at room temperature for 5 minutes. Relative luciferase activity unit (RLU) was read using a microplate reader.
3) The EC50 of effect of the tested compound to stimulate hTLR7 was fitted by the GraphPad software log(agonist) vs. response—Variable slope four-parameter method.

C[C@@H]1CN(CCNc2cc(N)nc3cc(-c4ccn[nH]4)sc23)C[C@H](C)O1 [Compound 117, N^7-(2-((2S,6R)-2,6-dimethylmorpholino)ethyl)-2-(1H-pyrazol-5-yl)thieno[3,2-b]pyridine-5,7-diamine]
EC50 (hNLRP3 inflammasome): 0.27 µM | EC50 (hTLR7): > 100000 nM

N#CC1(CNc2cc(N)nc3cc(-c4ccn[nH]4)sc23)CC1 [Compound 119]
EC50 (hNLRP3 inflammasome): 0.01 µM | EC50 (hTLR7): > 100000 nM

Nc1cc(NCC2CCOCC2)c2sc(-c3ccn[nH]3)cc2n1 [Compound 120, 2-(1H-pyrazol-5-yl)-N^7-((tetrahydro-2H-pyran-4-yl)methyl)thieno[3,2-b]pyridine-5,7-diamine]
EC50 (hNLRP3 inflammasome): 0.05 µM | EC50 (hTLR7): > 100000 nM

CC1(CNc2cc(N)nc3cc(-c4ccn[nH]4)sc23)COC1 [Compound 121, N^7-((3-methyloxetan-3-yl)methyl)-2-(1H-pyrazol-5-yl)thieno[3,2-b]pyridine-5,7-diamine]
EC50 (hNLRP3 inflammasome): 0.03 µM | EC50 (hTLR7): > 100000 nM

CC(CO)(CO)CNc1cc(N)nc2cc(-c3ccn[nH]3)sc12 [Compound 122]
EC50 (hNLRP3 inflammasome): 0.6 µM | EC50 (hTLR7): > 100000 nM

Cc1c(-c2cc[nH]n2)sc2c(NCCN3CCOCC3)cc(N)nc12 [Compound 153]
EC50 (hNLRP3 inflammasome): 4.29 µM | EC50 (hTLR7): > 100000 nM

Cc1c(-c2cc[nH]n2)sc2c(NCC3CC3)cc(N)nc12 [Compound 156]
EC50 (hNLRP3 inflammasome): 5.01 µM | EC50 (hTLR7): > 100000 nM

Cc1c(-c2ccn[nH]2)sc2c(NC[C@@H]3CCCO3)cc(N)nc12 [Compound 157]
EC50 (hNLRP3 inflammasome): 3.47 µM | EC50 (hTLR7): > 100000 nM

Cc1c(-c2cc[nH]n2)sc2c(NCCCO)cc(N)nc12 [Compound 159]
EC50 (hNLRP3 inflammasome): 1.29 µM | EC50 (hTLR7): > 100000 nM

Nc1cc(N2CCN(C3CCCC3)CC2)c2sc(-c3ccn[nH]3)cc2n1 [Compound 160]
EC50 (hNLRP3 inflammasome): 0.11 µM | EC50 (hTLR7): > 100000 nM

CN1CCN(c2cc(N)nc3cc(-c4ccn[nH]4)sc23)CC1 [Compound 161]
EC50 (hNLRP3 inflammasome): 0.18 µM | EC50 (hTLR7): > 100000 nM

CC(C)N1CCN(c2cc(N)nc3cc(-c4ccn[nH]4)sc23)CC1 [Compound 162]
EC50 (hNLRP3 inflammasome): 0.01 µM | EC50 (hTLR7): > 100000 nM

Nc1cc(N2CCN(C3CC3)CC2)c2sc(-c3ccn[nH]3)cc2n1 [Compound 163]
EC50 (hNLRP3 inflammasome): 0.27 µM | EC50 (hTLR7): > 100000 nM

CS(=O)(=O)N1CCN(c2cc(N)nc3cc(-c4ccn[nH]4)sc23)CC1 [Compound 164]
EC50 (hNLRP3 inflammasome): 0.006 µM | EC50 (hTLR7): > 100000 nM

COC1(C)CCN(c2cc(N)nc3cc(-c4ccn[nH]4)sc23)CC1 [Compound 165]
EC50 (hNLRP3 inflammasome): 0.03 µM | EC50 (hTLR7): > 100000 nM

Nc1cc(N2CCCC(O)C2)c2sc(-c3ccn[nH]3)cc2n1 (stereo not shown) [Compound 166]
EC50 (hNLRP3 inflammasome): 0.34 µM | EC50 (hTLR7): > 100000 nM

Nc1cc(N2CCN(C3CCCCC3)CC2)c2sc(-c3ccn[nH]3)cc2n1 [Compound 167]
EC50 (hNLRP3 inflammasome): 0.01 µM | EC50 (hTLR7): > 100000 nM

C[C@H]1CN(c2cc(N)nc3cc(-c4ccn[nH]4)sc23)C[C@H](C)O1 [Compound 168]
EC50 (hNLRP3 inflammasome): 0.01 µM | EC50 (hTLR7): > 100000 nM

C[C@@H]1CN(c2cc(N)nc3cc(-c4ccn[nH]4)sc23)C[C@H](C)O1 [Compound 169]
EC50 (hNLRP3 inflammasome): 0.01 µM | EC50 (hTLR7): > 100000 nM

Nc1cc(N2CCOCC2)c2sc(-c3ccn[nH]3)cc2n1 [Compound 170]
EC50 (hNLRP3 inflammasome): 0.02 µM | EC50 (hTLR7): > 100000 nM

CC1(C)CN(c2cc(N)nc3cc(-c4ccn[nH]4)sc23)CCO1 [Compound 171]
EC50 (hNLRP3 inflammasome): 0.03 µM | EC50 (hTLR7): > 100000 nM

Nc1cc(N2CCC(O)CC2)c2sc(-c3ccn[nH]3)cc2n1 [Compound 172]
EC50 (hNLRP3 inflammasome): 0.03 µM | EC50 (hTLR7): > 100000 nM

CC1(C)CCN(c2cc(N)nc3cc(-c4ccn[nH]4)sc23)CC1 [Compound 173]
EC50 (hNLRP3 inflammasome): 0.1 µM | EC50 (hTLR7): > 100000 nM

Nc1cc(N2CCN(c3ccccc3)CC2)c2sc(-c3ccn[nH]3)cc2n1 [Compound 174]
EC50 (hNLRP3 inflammasome): 0.34 µM | EC50 (hTLR7): > 100000 nM

Nc1cc(N2CCNCC2)c2sc(-c3ccn[nH]3)cc2n1 [Compound 175]
EC50 (hNLRP3 inflammasome): 0.34 µM | EC50 (hTLR7): > 100000 nM

Nc1cc(N2CC3CC(C2)N3)c2sc(-c3ccn[nH]3)cc2n1 [Compound 176]
EC50 (hNLRP3 inflammasome): 0.23 µM | EC50 (hTLR7): > 100000 nM

C[C@@H]1COCCN1c1cc(N)nc2cc(-c3ccn[nH]3)sc12 [Compound 177]
EC50 (hNLRP3 inflammasome): 0.03 µM | EC50 (hTLR7): > 100000 nM

Nc1cc(N2CCN(C=O)CC2)c2sc(-c3ccn[nH]3)cc2n1 [Compound 178]
EC50 (hNLRP3 inflammasome): 0.17 µM | EC50 (hTLR7): > 100000 nM

Nc1cc(N2CC3CC(C2)N3C=O)c2sc(-c3ccn[nH]3)cc2n1 [Compound 179]
EC50 (hNLRP3 inflammasome): 0.05 µM | EC50 (hTLR7): > 100000 nM

COC1CCN(c2cc(N)nc3cc(-c4ccn[nH]4)sc23)C1 (stereo not shown) [Compound 180]
EC50 (hNLRP3 inflammasome): 0.01 µM | EC50 (hTLR7): > 100000 nM

Nc1cc(N2CC[C@@H](O)C2)c2sc(-c3ccn[nH]3)cc2n1 [Compound 181]
EC50 (hNLRP3 inflammasome): 0.009 µM | EC50 (hTLR7): > 100000 nM

Nc1cc(N[C@H]2C[C@H]2CO)c2sc(-c3ccn[nH]3)cc2n1 [Compound 182s]
EC50 (hNLRP3 inflammasome): 0.11 µM | EC50 (hTLR7): > 100000 nM
